Assay results taken from PubChem BioAssay AID1963973 (Molecular Pharmacology Branch, DTP, NCI, 2024).
Values joined by “and” are separate entries in the source; they are usually repeats but may differ in a detail not shown here. Equal values may be shown once.

Test system: 883617-216-R-J1-PDC tumor spheroids, viability
Assay: Anticancer human tumor 883617-216-R-J1-PDC patient-derived bladder carcinoma cell line growth inhibition [PI3K]
Settings: spheroids with HUVEC and MSC; for viability, T/C: stronger effect = lower value
How it was run: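 High-throughput combination screen: PI3K inhibitors crossed with targeted small molecules on complex spheroids of tumor cells, HUVEC and MSCs at 37 degrees C, 5% CO2. Top concentration was at or near clinical Cmax (otherwise 10 microM), with half-log decrements.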

[1] = curve of first compound, second compound 0.0316 µM
[2] = curve of first compound, second compound 0.1 µM
[3] = curve of first compound, second compound 0.316 µM
[4] = curve of first compound, second compound 1 µM
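Note: spheroids exposed to agents for 7 days before the viability read.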

For `Cn1cnc2c(F)c(Nc3ccc(Br)cc3Cl)c(C(=O)NOCCO)cc21` + CC(Nc1ncnc2nc[nH]c12)c1cc2cccc(Cl)c2c(=O)n1-c1ccccc1, the IC50 [1] was 43.1 nM, the IC50 [2] was 39.3 nM and the IC50 [3] was 32.7 nM. The IC50 [4] was 22.7 nM, the IC50 (curve of first compound, second compound 3.16 µM) was 9.6 nM and the IC50 (curve of first compound, second compound 10 µM) was under 9.49 nM. For the same molecule, the viability, T/C (second compound 0.0316 µM, first compound 0.00949 µM) was 64.3%, the viability, T/C (second compound 0.0316 µM, first compound 0.03 µM) was 56.1% and the viability, T/C (second compound 0.0316 µM, first compound 0.0949 µM) was 39.5%. For the same molecule, the viability, T/C (second compound 0.0316 µM, first compound 0.3 µM) was 33.4%, the viability, T/C (second compound 0.0316 µM, first compound 0.949 µM) was 33.5% and the viability, T/C (second compound 0.0316 µM, first compound 3 µM) was 19.9%. For the same molecule, the viability, T/C (second compound 0.1 µM, first compound 0.00949 µM) was 66.4%, the viability, T/C (second compound 0.1 µM, first compound 0.03 µM) was 55% and the viability, T/C (second compound 0.1 µM, first compound 0.0949 µM) was 35.6%. The viability, T/C (second compound 0.1 µM, first compound 0.3 µM) was 28.8%, the viability, T/C (second compound 0.1 µM, first compound 0.949 µM) was 30% and the viability, T/C (second compound 0.1 µM, first compound 3 µM) was 19.7%. It also gave a viability, T/C (second compound 0.316 µM, first compound 0.00949 µM) of 68.8%, a viability, T/C (second compound 0.316 µM, first compound 0.03 µM) of 51% and a viability, T/C (second compound 0.316 µM, first compound 0.0949 µM) of 37.8%. The viability, T/C (second compound 0.316 µM, first compound 0.3 µM) was 28.4%, the viability, T/C (second compound 0.316 µM, first compound 0.949 µM) was 23.9% and the viability, T/C (second compound 0.316 µM, first compound 3 µM) was 19.6%. For the same molecule, the viability, T/C (second compound 1 µM, first compound 0.00949 µM) was 60%, the viability, T/C (second compound 1 µM, first compound 0.03 µM) was 44.9% and the viability, T/C (second compound 1 µM, first compound 0.0949 µM) was 39.4%. The viability, T/C (second compound 1 µM, first compound 0.3 µM) was 28%, the viability, T/C (second compound 1 µM, first compound 0.949 µM) was 22.4% and the viability, T/C (second compound 1 µM, first compound 3 µM) was 19%. It also gave a viability, T/C (second compound 3.16 µM, first compound 0.00949 µM) of 50.3%, a viability, T/C (second compound 3.16 µM, first compound 0.03 µM) of 37% and a viability, T/C (second compound 3.16 µM, first compound 0.0949 µM) of 23.2%. For the same molecule, the viability, T/C (second compound 3.16 µM, first compound 0.3 µM) was 20.6%, the viability, T/C (second compound 3.16 µM, first compound 0.949 µM) was 19% and the viability, T/C (second compound 3.16 µM, first compound 3 µM) was 11%. The viability, T/C (second compound 10 µM, first compound 0.00949 µM) was 31.2%, the viability, T/C (second compound 10 µM, first compound 0.03 µM) was 24.7% and the viability, T/C (second compound 10 µM, first compound 0.0949 µM) was 17.8%. The viability, T/C (second compound 10 µM, first compound 0.3 µM) was 13.3%, the viability, T/C (second compound 10 µM, first compound 0.949 µM) was 12.4% and the viability, T/C (second compound 10 µM, first compound 3 µM) was 8.11%.

With `CC(Nc1ccc2c(c1)OCCn1cc(N3C(=O)OCC3C(F)F)nc1-2)C(N)=O` (stereo unspecified) the viability, T/C (compound 0.00316 µM) was 96.5% [middle of 8 runs], the viability, T/C (compound 0.01 µM) was 91.7% [middle of 8 runs] and the viability, T/C (compound 0.0316 µM) was 71.5% [middle of 8 runs]. For the same molecule, the viability, T/C (compound 0.1 µM) was 40.2% [middle of 8 runs], the viability, T/C (compound 0.316 µM) was 29.8% [middle of 8 runs] and the viability, T/C (compound 1 µM) was 18.9% [middle of 8 runs]. For the same molecule, the IC50 (compound alone, run of 04/24/2023) was 72 nM [middle of 8 runs].

`CCCS(=O)(=O)Nc1ccc(F)c(C(=O)c2c[nH]c3ncc(-c4ccc(Cl)cc4)cc23)c1F` + COc1c(OCCCN2CCOCC2)ccc2c3n(c(=NC(=O)c4cnc(N)nc4)nc12)CCN3 gave an IC50 (curve of first compound, second compound 0.00316 µM) of 4090 nM, an IC50 (curve of first compound, second compound 0.01 µM) of 3650 nM and an IC50 [1] of under 31.6 nM. For the same molecule, the IC50 [2] was under 31.6 nM, the IC50 [3] was under 31.6 nM and the IC50 [4] was under 31.6 nM. It also gave a viability, T/C (second compound 0.00316 µM, first compound 0.0316 µM) of 78.5%, a viability, T/C (second compound 0.00316 µM, first compound 0.1 µM) of 88.4% and a viability, T/C (second compound 0.00316 µM, first compound 0.316 µM) of 85.1%. For the same molecule, the viability, T/C (second compound 0.00316 µM, first compound 1 µM) was 77.9%, the viability, T/C (second compound 0.00316 µM, first compound 3.16 µM) was 61.7% and the viability, T/C (second compound 0.00316 µM, first compound 10 µM) was 10.4%. The viability, T/C (second compound 0.01 µM, first compound 0.0316 µM) was 67%, the viability, T/C (second compound 0.01 µM, first compound 0.1 µM) was 72.6% and the viability, T/C (second compound 0.01 µM, first compound 0.316 µM) was 85.3%. For the same molecule, the viability, T/C (second compound 0.01 µM, first compound 1 µM) was 61.7%, the viability, T/C (second compound 0.01 µM, first compound 3.16 µM) was 56.6% and the viability, T/C (second compound 0.01 µM, first compound 10 µM) was 13.1%. For the same molecule, the viability, T/C (second compound 0.0316 µM, first compound 0.0316 µM) was 38.8%, the viability, T/C (second compound 0.0316 µM, first compound 0.1 µM) was 45.7% and the viability, T/C (second compound 0.0316 µM, first compound 0.316 µM) was 47%. It also gave a viability, T/C (second compound 0.0316 µM, first compound 1 µM) of 44.2%, a viability, T/C (second compound 0.0316 µM, first compound 3.16 µM) of 36.9% and a viability, T/C (second compound 0.0316 µM, first compound 10 µM) of 12.8%. The viability, T/C (second compound 0.1 µM, first compound 0.0316 µM) was 25%, the viability, T/C (second compound 0.1 µM, first compound 0.1 µM) was 19.9% and the viability, T/C (second compound 0.1 µM, first compound 0.316 µM) was 17.6%. For the same molecule, the viability, T/C (second compound 0.1 µM, first compound 1 µM) was 17.8%, the viability, T/C (second compound 0.1 µM, first compound 3.16 µM) was 18% and the viability, T/C (second compound 0.1 µM, first compound 10 µM) was 7.55%. The viability, T/C (second compound 0.316 µM, first compound 0.0316 µM) was 5.17%, the viability, T/C (second compound 0.316 µM, first compound 0.1 µM) was 7.28% and the viability, T/C (second compound 0.316 µM, first compound 0.316 µM) was 6.6%. It also gave a viability, T/C (second compound 0.316 µM, first compound 1 µM) of 8.36%, a viability, T/C (second compound 0.316 µM, first compound 3.16 µM) of 9.94% and a viability, T/C (second compound 0.316 µM, first compound 10 µM) of 4.39%. For the same molecule, the viability, T/C (second compound 1 µM, first compound 0.0316 µM) was 3.48%, the viability, T/C (second compound 1 µM, first compound 0.1 µM) was 4.22% and the viability, T/C (second compound 1 µM, first compound 0.316 µM) was 4.32%. For the same molecule, the viability, T/C (second compound 1 µM, first compound 1 µM) was 5.19%, the viability, T/C (second compound 1 µM, first compound 3.16 µM) was 6.41% and the viability, T/C (second compound 1 µM, first compound 10 µM) was 2.37%.

For `C=CC(=O)N1CCN(c2nc(=O)n(-c3c(C)ccnc3C(C)C)c3nc(-c4c(O)cccc4F)c(F)cc23)C(C)C1` (stereo unspecified), the viability, T/C (compound 0.0316 µM) was 61.8% [middle of 4 runs], the viability, T/C (compound 0.1 µM) was 48% [middle of 4 runs] and the viability, T/C (compound 0.316 µM) was 51.2% [middle of 4 runs]. For the same molecule, the viability, T/C (compound 1 µM) was 58.9% [middle of 4 runs], the viability, T/C (compound 3.16 µM) was 74.7% [middle of 4 runs] and the viability, T/C (compound 10 µM) was 66.4% [middle of 4 runs].

With `CC1(C)CCC(CN2CCN(c3ccc(C(=O)NS(=O)(=O)c4ccc(NCC5CCOCC5)c([N+](=O)[O-])c4)c(Oc4cnc5[nH]ccc5c4)c3)CC2)=C(c2ccc(Cl)cc2)C1` the viability, T/C (compound 0.0316 µM) was 105% [middle of 4 runs], the viability, T/C (compound 1 µM) was 94.3% [middle of 4 runs] and the viability, T/C (compound 3.16 µM) was 92.8% [middle of 4 runs]. The IC50 (curve of compound) was > 10000 nM and 5360 nM and 5660 nM.
